# Results reported in PubChem BioAssay AID1963966 (Molecular Pharmacology Branch, DTP, NCI, 2024).
# Tested on: 935938-334-R-J1-PDC spheroids with HUVEC/MSC, viability
# Assay: Anticancer human tumor 935938-334-R-J1-PDC patient-derived small intestine adenocarcinoma cell line growth inhibition [PI3K]
# Settings: for IC50: curve of first compound; for viability, T/C: stronger effect = lower value
# Summary of the method: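 Spheroid viability read-out. Co-cultures contained the tumor line plus HUVEC and human MSCs. Each agent was paired with a PI3K inhibitor (inavolisib, alpelisib, duvelisib, copanlisib) across half-log dilutions starting at clinical Cmax, or at 10 microM when Cmax was unknown.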
# [1] = second compound 0.00316 µM, first compound 0.0316 µM
# [2] = second compound 0.00316 µM, first compound 0.1 µM
# [3] = second compound 0.00316 µM, first compound 0.316 µM
# [4] = second compound 0.00316 µM, first compound 1 µM
# [5] = second compound 0.00316 µM, first compound 3.16 µM
# [6] = second compound 0.00316 µM, first compound 10 µM
# [7] = second compound 0.01 µM, first compound 0.0316 µM
# [8] = second compound 0.01 µM, first compound 0.1 µM
# [9] = second compound 0.01 µM, first compound 0.316 µM
# [10] = second compound 0.01 µM, first compound 1 µM
# [11] = second compound 0.01 µM, first compound 3.16 µM
# [12] = second compound 0.01 µM, first compound 10 µM
# [13] = second compound 0.0316 µM, first compound 0.0316 µM
# [14] = second compound 0.0316 µM, first compound 0.1 µM
# [15] = second compound 0.0316 µM, first compound 0.316 µM
# [16] = second compound 0.0316 µM, first compound 1 µM
# [17] = second compound 0.0316 µM, first compound 3.16 µM
# [18] = second compound 0.0316 µM, first compound 10 µM
# [19] = second compound 0.1 µM, first compound 0.0316 µM
# [20] = second compound 0.1 µM, first compound 0.1 µM
# [21] = second compound 0.1 µM, first compound 0.316 µM
# [22] = second compound 0.1 µM, first compound 1 µM
# [23] = second compound 0.1 µM, first compound 3.16 µM
# [24] = second compound 0.1 µM, first compound 10 µM
# [25] = second compound 0.316 µM, first compound 0.0316 µM
# [26] = second compound 0.316 µM, first compound 0.1 µM
# [27] = second compound 0.316 µM, first compound 0.316 µM
# [28] = second compound 0.316 µM, first compound 1 µM
# [29] = second compound 0.316 µM, first compound 3.16 µM
# [30] = second compound 0.316 µM, first compound 10 µM
# [31] = second compound 1 µM, first compound 0.0316 µM
# [32] = second compound 1 µM, first compound 0.1 µM
# [33] = second compound 1 µM, first compound 0.316 µM
# [34] = second compound 1 µM, first compound 1 µM
# [35] = second compound 1 µM, first compound 3.16 µM
# [36] = second compound 1 µM, first compound 10 µM
# 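Also: compound exposure lasted seven days before viability was read.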
# 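For viability, T/C in this document: percent of vehicle DMSO treated spheroid viability so 100% = untreated.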
compound,measurement,setting,value
CC(Cn1ccc(-c2ccc(C#N)c(Cl)c2)n1)NC(=O)c1cc(C(C)O)[nH]n1 (stereo unspecified) + CC(Nc1ccc2c(c1)OCCn1cc(N3C(=O)OCC3C(F)F)nc1-2)C(N)=O,IC50,second compound 0.00316 µM,> 10000 nM
same,IC50,second compound 0.01 µM,> 10000 nM
same,IC50,second compound 0.0316 µM,> 10000 nM
same,IC50,second compound 0.1 µM,8810 nM
same,IC50,second compound 0.316 µM,7050 nM
same,IC50,second compound 1 µM,4180 nM
same,"viability, T/C",[1],66.3%
same,"viability, T/C",[2],106%
same,"viability, T/C",[3],91.7%
same,"viability, T/C",[4],82.5%
same,"viability, T/C",[5],105%
same,"viability, T/C",[6],53.2%
same,"viability, T/C",[7],89%
same,"viability, T/C",[8],72.4%
same,"viability, T/C",[9],97.3%
same,"viability, T/C",[10],119%
same,"viability, T/C",[11],96.7%
same,"viability, T/C",[12],56.6%
same,"viability, T/C",[13],78.5%
same,"viability, T/C",[14],89.6%
same,"viability, T/C",[15],96.6%
same,"viability, T/C",[16],94.1%
same,"viability, T/C",[17],90.5%
same,"viability, T/C",[18],59.9%
same,"viability, T/C",[19],61.6%
same,"viability, T/C",[20],60.9%
same,"viability, T/C",[21],83.8%
same,"viability, T/C",[22],105%
same,"viability, T/C",[23],84.9%
same,"viability, T/C",[24],46.4%
same,"viability, T/C",[25],96.7%
same,"viability, T/C",[26],81.7%
same,"viability, T/C",[27],68.2%
same,"viability, T/C",[28],82.4%
same,"viability, T/C",[29],75.3%
same,"viability, T/C",[30],39.2%
same,"viability, T/C",[31],64.9%
same,"viability, T/C",[32],43%
same,"viability, T/C",[33],83.7%
same,"viability, T/C",[34],75.5%
same,"viability, T/C",[35],49.6%
same,"viability, T/C",[36],29%
CC1(C)CCC(Nc2ncc(C(F)(F)F)c(-c3c[nH]c4c(P(C)(C)=O)c(C#N)ccc34)n2)CN1 (stereo unspecified) + CC(Nc1ccc2c(c1)OCCn1cc(N3C(=O)OCC3C(F)F)nc1-2)C(N)=O,IC50,second compound 0.00316 µM,< 31.6 nM
same,IC50,second compound 0.01 µM,< 31.6 nM
same,IC50,second compound 0.0316 µM,< 31.6 nM
same,IC50,second compound 0.1 µM,< 31.6 nM
same,IC50,second compound 0.316 µM,< 31.6 nM
same,IC50,second compound 1 µM,< 31.6 nM
same,"viability, T/C",[1],46.2%
same,"viability, T/C",[2],35%
same,"viability, T/C",[3],29.9%
same,"viability, T/C",[4],33.8%
same,"viability, T/C",[5],25.8%
same,"viability, T/C",[6],7.62%
same,"viability, T/C",[7],42.7%
same,"viability, T/C",[8],36.3%
same,"viability, T/C",[9],27.2%
same,"viability, T/C",[10],28.6%
same,"viability, T/C",[11],30.4%
same,"viability, T/C",[12],5.01%
same,"viability, T/C",[13],42.5%
same,"viability, T/C",[14],40.5%
same,"viability, T/C",[15],33.8%
same,"viability, T/C",[16],27.1%
same,"viability, T/C",[17],35.5%
same,"viability, T/C",[18],6.2%
same,"viability, T/C",[19],36.8%
same,"viability, T/C",[20],39.5%
same,"viability, T/C",[21],30%
same,"viability, T/C",[22],29.6%
same,"viability, T/C",[23],31.3%
same,"viability, T/C",[24],4.61%
same,"viability, T/C",[25],37.5%
same,"viability, T/C",[26],29.5%
same,"viability, T/C",[27],27.2%
same,"viability, T/C",[28],29.2%
same,"viability, T/C",[29],23.1%
same,"viability, T/C",[30],6.76%
same,"viability, T/C",[31],29.5%
same,"viability, T/C",[32],24%
same,"viability, T/C",[33],24.7%
same,"viability, T/C",[34],22.9%
same,"viability, T/C",[35],18.3%
same,"viability, T/C",[36],3.56%
Cn1nccc1Nc1nccc(-c2ccn(C(CO)c3ccc(Cl)c(F)c3)c(=O)c2)n1 (stereo unspecified) + CC(Nc1ccc2c(c1)OCCn1cc(N3C(=O)OCC3C(F)F)nc1-2)C(N)=O,IC50,second compound 0.00316 µM,1400 nM
same,IC50,second compound 0.01 µM,835 nM
same,IC50,second compound 0.0316 µM,1430 nM
same,IC50,second compound 0.1 µM,777 nM
same,IC50,second compound 0.316 µM,505 nM
same,IC50,second compound 1 µM,147 nM
same,"viability, T/C",[1],101%
same,"viability, T/C",[2],92.6%
same,"viability, T/C",[3],70.6%
same,"viability, T/C",[4],57.2%
same,"viability, T/C",[5],37.5%
same,"viability, T/C",[6],37%
same,"viability, T/C",[7],99.9%
same,"viability, T/C",[8],82.1%
same,"viability, T/C",[9],73.8%
same,"viability, T/C",[10],41.4%
same,"viability, T/C",[11],38.9%
same,"viability, T/C",[12],33.7%
same,"viability, T/C",[13],108%
same,"viability, T/C",[14],81.9%
same,"viability, T/C",[15],66%
same,"viability, T/C",[16],59.5%
same,"viability, T/C",[17],38.8%
same,"viability, T/C",[18],31.4%
same,"viability, T/C",[19],87.6%
same,"viability, T/C",[20],71.7%
same,"viability, T/C",[21],63.8%
same,"viability, T/C",[22],48.6%
same,"viability, T/C",[23],30.3%
same,"viability, T/C",[24],25.8%
same,"viability, T/C",[25],86.5%
same,"viability, T/C",[26],71.2%
same,"viability, T/C",[27],53%
same,"viability, T/C",[28],44.7%
same,"viability, T/C",[29],29.7%
same,"viability, T/C",[30],21.6%
same,"viability, T/C",[31],70.3%
same,"viability, T/C",[32],55.1%
same,"viability, T/C",[33],39.5%
same,"viability, T/C",[34],30.1%
same,"viability, T/C",[35],23.2%
same,"viability, T/C",[36],23.4%
